In publication PMC5007476, “Use of cross-reactivity immunoassay to orient insulin replacement in diabetic patients with high levels of insulin antibodies” (MethodsX, 2016):
Where two headings read alike, the source gives them in different places.

Assays:
[1] = tested on: insulin antibodies (IA) in patient serum; assay: Displacement radioimmunoassay (RIA) for affinity and cross-reactivity of insulin antibodies in patient serum; format: binding, human; conditions: for K0, average (median) affinity constant: at start of study (before change of insulin), patient serum 30 μL, duplicates, 5 days at 4 °C (near equilibrium), tracer mono [^125I A14] insulin ~20,000 cpm (5.8 × 10^−11 M), competitor 1 × 10^−9 to 10^−6 M; for Selectivity (S = KL/KCi): at start of study, KL = K0 of regular human insulin, KCi = K0 of the competitor analog
Experimental: The homogeneous mono [^125I A14]
For in vitro cross-reactivity assessment a displacement RIA was applied by using the tracer described above. Briefly, duplicate 30 μL serum samples from the patient were incubated during 5 days at 4 °C (near equilibrium) with a constant amount of tracer (∼20,000 cpm). […] Insulin analogs were engineered to enhance desired molecular properties without altering immunogenicity, at least in theory. However, since the amino acid sequence of these insulin variants were changed to alter its absorption, distribution, metabolism and excretion characteristics, some residual capacity to elicit specific antibodies must be expected. […] Also the grade of alteration of the natural insulin molecule is of importance.
In order to express the degree of cross reactivity of IA induced by the initial insulin formulation (¨Ligand̈, L), against a panel of slow or fast action insulin analogs as described above (Competitors̈, Ci), the parameter selectivity (S), as defined elsewhere (Berzofsky and Schechter; Berzofsky et al.), was employed. Approximate values for average (median) affinity (K0) for L and those from each Ci, were obtained from the plots of B/F signals as a function of each competitor concentration, interpolating in the abscissa axis the respective doses corresponding to the maximum/2 signal [(B/F)0/2] (Graphical abstract, RIA plot). Alternatively, a best fit to the true affinity constants was obtained by representing B/F signals for each ligand as a function of free tracer (F) calculated by the formula: F = [C/(1 + B/F)]. It is important to emphasize that the molar concentration of the tracer in the test must be lower than the inverse of K0 value. This condition precludes the preparation of the respective labeled competitors to perform specific single RIAs for each homologous ligand. (Berzofsky and Schechter). In the RIA the concentration of tracer was 5.8 × 10^−11 M (see Preparation of the homogeneous tracer mono [^125I A14] Insulin) and K0 values for IA (ranging 10^6–10^8 M^−1) were obtained from previous work of our laboratory (Trabucchi et al.; Trabucchi et al.).
Finally, the respective Selectivity ratios were obtained using the expression: Si = KL/KCi.

[2] = effect of the sequence modification; background, no reference given; cited from earlier work
Source text: (§1) Lispro was engineered through recombinant DNA technology so that the penultimate lysine and proline residues on the C-terminal end of the B-chain were reversed. […] This allowed larger amounts of active monomeric insulin to be available for postprandial (after meal) injections. Similar to Glulisine, the monomeric state of Lispro theoretically may diminish the chance of phagocytosis by cells of the Immune System resulting in lower immunogenicity.

[3] = tested on: insulin receptor; conditions: effect of the sequence modification; background, no reference given; cited from earlier work
Source text: as §1

[4] = tested on: serum albumin; conditions: background, no reference given; cited from earlier work
Source text: (§2) Detemir is an insulin analog in which a fatty acid (myristic acid) is bound to the lysine amino acid at position B29. […] Accordingly, its persistence as a potential antigen in circulation must not be ruled out. Glargine was created by modifying three amino acids. […] In order to avoid ...

[5] = cited from earlier work
Source text: Detemir is an insulin analog in which a fatty acid (myristic acid) is bound to the lysine amino acid at position B29. […] Accordingly, its persistence as a potential antigen in circulation must not be ruled out. Glargine was created by modifying three amino acids. […] In order to avoid ... || Glulisine is a rapid-acting insulin analog that differs from human insulin in that the amino acid asparagine at position B3 is replaced by lysine and the lysine in position B29 is replaced by glutamic acid.

[6] = Metabolic control of the patient (glycaemia, HbA1c) under insulin treatment; format: in vivo, human
[7] = tested on: anti-insulin antibodies (IA)
Experimental: Insulin used as a tracer for both radiometric methods, RBA and RIA, was produced using recombinant human insulin (HumulinC from Eli Lilly, Indiana, USA) devoid of preservative substances by chromatography on a Sephadex G25 column (Amersham Biosciences, New Jersey, USA). The labeling and HPLC purification steps were carried out following as indicated by Linde et al. [3] and Jørgensen et al. [4], respectively. Specific radioactivity of roughly 300–380 μCi/μg was routinely achieved.
The concentration of tracer in both, RBA and RIA, was 5.8 × 10^−11, calculated from an activity of 20,000 cpm; Relative mass of insulin, 5808 Da; Final incubation volume, 0,12 mL; Gamma counter efficiency, 70%; Specific activity of fresh insulin tracer, 380 μCi/μg.
Radioligand binding assay for IA assessment, performed routinely as official analysis service at IDEHU-CONICET laboratory, was based on the original procedure indicated by Kurtz et al. [5] and carried out essentially as previously described by Stumpo et al. [6]. […] Results were expressed as specific insulin binding percentage B% = Bwi% (preincubated without cold insulin) – Bie% (preincubated with excess cold insulin). Reproducibility was assessed at different binding levels. […]

[8] = background, no reference given, cited from earlier work
Source text: as §2

[9] = after 6 months of Glulisine 0,6 IU/Kg/day by pump infusion
[10] = before change, more than 3 IU/kg/day NPH human insulin complemented with crystalline human insulin

For Lispro, the “K0, average (median) affinity constant” value [1] was 1.96e+07 M⁻¹, the “Selectivity (S = KL/KCi)” value [1] was 40.3 and the “K0, affinity constant” value ([1]; control RIA on serum sample after 14 months (of Glulisine treatment)) was 3.4e+07 M⁻¹. The “formation of insulin dimers and hexamers (in words)” value [2] was “blocked the formation of insulin dimers and hexamers” and the “insulin receptor binding (in words)” value [3] was “did not alter the insulin receptor binding”.

In the case of Detemir, the “Selectivity (S = KL/KCi)” value [1] is given as about 1, the “affinity for serum albumin (in words)” value [4] is given as “high affinity for serum albumin” and the “duration/onset of action (in words)” value [5] is given as “increasing its duration of action”.

With “regular human insulin: unlabeled regular crystalline human insulin (Humulin, Eli Lilly)” the “K0, average (median) affinity constant” value [1] was 7.9e+08 M⁻¹.

In the case of Glulisine, the “K0, average (median) affinity constant” value [1] is reported as 1e+06 M⁻¹, the “Selectivity (S = KL/KCi)” value [1] is reported as 790 and the “IA binding rate compared with regular human insulin” value ([1]; in vitro, at the same doses, start of study) is reported as 1/790. The HbA1c [6, 9] was 7.6%, the “HbA1c (IFCC)” value [6, 9] was 60 mmol/mol and the “metabolic control (in words)” value [6, 9] was “recovered metabolic control”. The “change of B% signal (in words)” value [7] was “significant decrease in B% signal” and the “duration/onset of action (in words)” value ([5]; background, no reference given) was “rapid-acting”.

For “NPH human insulin: NPH human insulin (Humulin – Eli Lilly) complemented with crystalline human insulin”, the HbA1C [6, 10] was 11%, the “HbA1C (IFCC)” value [6, 10] was 97 mmol/mol and the “metabolic control (in words)” value ([6]; before change, more than 3 IU/kg/day NPH human insulin complemented with crystalline human insulin, last two years) was “inadequate metabolic control”.

For Glargine, the “K0, average (median) affinity constant” value [1] is listed as 2.1e+07 M⁻¹, the “Selectivity (S = KL/KCi)” value [1] is listed as 37.6 and the “solubility at physiological pH (in words)” value ([8]; physiological pH) is listed as “less soluble at a physiological pH”. The isoelectric point ([8]; shifted from 5.4 by two added arginine residues) was 6.7, the “solubility at slightly acidic pH (in words)” value ([8]; slightly acidic pH) was “more soluble at a slightly acidic pH” and the “duration/onset of action (in words)” value ([5]; background, no reference given) was “prolonged action when compared with biosynthetic human insulin”.
